{
  "source": "paper PMC11574021",
  "about": "“CEP192 localises mitotic Aurora-A activity by priming its interaction with TPX2” (The EMBO Journal, 2024)",
  "key": {"[1]": {"test_system": "TCTP-pS46 in RPE1 p53-/- cells", "assay": "Western blot densitometry, TCTP-pS46, RPE1 p53-/-", "assay_type": "cell-based, Homo sapiens", "conditions": "mitotic RPE1 p53-/- lysates, inhibitor 30 min", "experimental": "(§1) For measuring monopolar spindle diameter and counting centriolar foci by immunofluorescence, cells were treated with 10 µM STLC for 1 h and 4 h prior to fixation, respectively.\n(§2) Drugs were resuspended in DMSO to the stock concentrations indicated in square brackets.\n(§3) Cells were lysed on ice for 30 min in lysis buffer (50 mM tris pH 8.0, 300 mM NaCl, 0.2%(v/v) NP-40, 10%(v/v) glycerol, protease inhibitor cocktail C, phosphatase inhibitor cocktail 3 (Sigma, 1:200 dilution), 100 nM okadaic acid (Enzo, ALX-350-003-C100)). Lysates were then centrifuged at 14,000 × g, 15 min, 4 °C, the supernatants were transferred to a fresh tube, and the pellet was discarded. Protein concentrations were measured by Bradford assay using Protein Assay Dye Reagent Concentrate (Bio-Rad Laboratories, 5000006). NuPage LDS sample buffer, supplemented with NuPAGE sample reducing agent (Invitrogen) were added prior to boiling for 10 min at 90 °C. […] Nitrocellulose was then blocked in 5% milk (wt/v) in TBS, 0.1% Tween (v/v) (TBST) for 1 h. Primary and secondary antibodies were diluted in 5% milk, TBST and incubated overnight at 4 °C or for 1 h at room temperature, respectively. […]\n(§4) Densitometric quantification of western blots was also performed in ImageJ. Intensity was measured in a rectangular region of interest (ROI) around each band. […] An adjacent region was also measured to account for background intensity."}, "[2]": {"test_system": "PLK1-pT210 in RPE1 p53-/- cells", "assay": "Western blot densitometry, PLK1-pT210, RPE1 p53-/-", "assay_type": "cell-based, Homo sapiens", "conditions": "mitotic RPE1 p53-/- lysates, inhibitor 30 min", "experimental": "as §1, §2, §3, §4"}, "Aurora-A (Homo sapiens)": {"target": "Aurora-A (Homo sapiens) (UniProt O14965)", "sequence (O14965 whole entry)": "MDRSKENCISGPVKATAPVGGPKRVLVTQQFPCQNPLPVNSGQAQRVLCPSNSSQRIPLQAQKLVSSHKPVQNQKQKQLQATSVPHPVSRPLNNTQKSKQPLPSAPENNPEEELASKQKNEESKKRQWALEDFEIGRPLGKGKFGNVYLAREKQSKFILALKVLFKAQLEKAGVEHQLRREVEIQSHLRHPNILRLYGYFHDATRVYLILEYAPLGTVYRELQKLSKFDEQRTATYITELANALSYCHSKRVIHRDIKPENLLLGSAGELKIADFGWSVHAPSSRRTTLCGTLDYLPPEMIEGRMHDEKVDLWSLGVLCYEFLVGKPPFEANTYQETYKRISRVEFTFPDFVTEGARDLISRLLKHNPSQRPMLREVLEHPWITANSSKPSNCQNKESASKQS", "assay": "fluorescence polarisation", "conditions": "cited from earlier work"}, "Aurora-A CAKD": {"target": "T1, Aurora-A CAKD (Homo sapiens, UniProt O14965, C290A/C393A)", "T1 construct": "25 μM Aurora-A kinase domain (phosphorylated or unphosphorylated C290A C393A 122–403); His (N, cleaved yes); made in house; host or cells: E. coli", "T1 sequence (O14965 122-403 C290A/C393A)": "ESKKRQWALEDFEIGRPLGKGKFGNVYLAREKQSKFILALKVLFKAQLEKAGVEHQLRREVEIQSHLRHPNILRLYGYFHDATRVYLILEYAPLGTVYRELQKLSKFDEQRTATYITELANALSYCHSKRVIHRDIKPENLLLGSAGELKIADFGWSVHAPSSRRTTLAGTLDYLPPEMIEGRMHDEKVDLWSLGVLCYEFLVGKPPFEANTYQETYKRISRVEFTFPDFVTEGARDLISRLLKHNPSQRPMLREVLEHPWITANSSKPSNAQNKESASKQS", "assay": "Fluorescence anisotropy competition with FAM-TACC3 522-536", "assay_type": "binding", "conditions": "in words", "experimental": "Assays were performed in 25 mM HEPES pH 7.5, 150 mM NaCl, 2 mM DTT, 5 mM MgCl2, 0.01% Tween 20. For CEP192 and TPX2 competition assays 10 μM Aurora-A kinase domain (phosphorylated or unphosphorylated C290A C393A 122–403) was preincubated on ice with 100 nM FAM-TPX2 7-43 or 100 nM FAM-CEP192 501–533. For TACC3 competition, due to weaker binding, 25 μM Aurora-A kinase domain (phosphorylated or unphosphorylated C290A C393A 122–403) was preincubated with 100 nM FAM-TACC3 522-536. Serial dilutions of competitor (CEP192) were performed in triplicate into a low volume 384-well black plate, before the premixed Aurora-A and tracer were added. A control row included no tracer. Plates were left incubating for 1 h at room temperature before the fluorescence anisotropy was measured using a HIDEX plate reader, with excitation at 485 nm and emission at 535 nm. […]\n(§5) Fluorescence anisotropy data were processed using Microsoft Excel to calculate intensity and anisotropy using the equation listed in (Yeo et al, [2013]). The IC50 and Kd values were calculated using Origin (OriginLab) where the data fitted to a sigmoid and are summarised in Appendix Table S3."}, "[3]": {"target": "T2, phosphorylated Aurora-A CAKD (Homo sapiens, UniProt O14965, C290A/C393A)", "T2 construct": "10 nM Aurora-A 122–403 C290A C393A phosphorylated protein; His (N, cleaved yes); made in house; host or cells: E. coli B834 (no lambda phosphatase)", "T2 sequence (O14965 122-403 C290A/C393A)": "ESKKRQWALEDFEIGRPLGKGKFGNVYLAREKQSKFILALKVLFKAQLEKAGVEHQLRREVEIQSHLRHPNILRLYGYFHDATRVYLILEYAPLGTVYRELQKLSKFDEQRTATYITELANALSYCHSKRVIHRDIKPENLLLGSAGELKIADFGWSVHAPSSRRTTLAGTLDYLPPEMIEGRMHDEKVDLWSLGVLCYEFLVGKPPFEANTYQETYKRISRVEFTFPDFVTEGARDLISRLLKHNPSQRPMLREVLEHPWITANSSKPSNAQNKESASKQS", "assay": "ADP-Glo kinase assay, kemptide substrate", "assay_type": "biochemical", "conditions": "ADP-Glo, phosphorylated Aurora-A CAKD, kemptide; in words", "experimental": "Reactions were initiated by the addition of 10 μM ATP and 100 μM kemptide as substrate (Cambridge Bioscience Ltd). The reactions were incubated at room temperature for 60 min before 5 μl was transferred into 5 ul of ADP-Glo Reagent (Promega) in a 384-well low volume low binding plate (Greiner Bio-one). After a further 40 min at room temperature, 10 μl of kinase detection reagent was added to each well, and the reaction was allowed to incubate for an additional 30 min. Luminescence was measured on a HIDEX Sense plate reader (HIDEX) using a 1 s integration time. Control data was subtracted from the luminescence and three repeats were averaged before being fitted to a sigmoidal plot using Origin (OriginLab), where IC50 and EC50 values were calculated."}, "[4]": {"target": "T3, unphosphorylated Aurora-A CAKD (Homo sapiens, UniProt O14965, C290A/C393A)", "T3 construct": "10 μM Aurora-A kinase domain (phosphorylated or unphosphorylated C290A C393A 122–403); His (N, cleaved yes); made in house; host or cells: E. coli RIL, co-expressed with lambda phosphatase", "T3 sequence (O14965 122-403 C290A/C393A)": "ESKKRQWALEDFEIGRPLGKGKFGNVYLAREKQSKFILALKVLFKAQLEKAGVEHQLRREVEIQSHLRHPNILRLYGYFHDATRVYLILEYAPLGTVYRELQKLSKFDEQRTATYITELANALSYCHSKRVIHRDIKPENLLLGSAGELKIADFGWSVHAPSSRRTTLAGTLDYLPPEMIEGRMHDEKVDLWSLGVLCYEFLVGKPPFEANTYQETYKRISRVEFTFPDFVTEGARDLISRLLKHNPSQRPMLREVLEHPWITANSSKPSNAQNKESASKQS", "assay": "Fluorescence anisotropy competition with FAM-TPX2 7-43", "assay_type": "binding", "conditions": "in words, Aurora-A CAKD", "experimental": "Assays were performed in 25 mM HEPES pH 7.5, 150 mM NaCl, 2 mM DTT, 5 mM MgCl2, 0.01% Tween 20. For CEP192 and TPX2 competition assays 10 μM Aurora-A kinase domain (phosphorylated or unphosphorylated C290A C393A 122–403) was preincubated on ice with 100 nM FAM-TPX2 7-43 or 100 nM FAM-CEP192 501–533. For TACC3 competition, due to weaker binding, 25 μM Aurora-A kinase domain (phosphorylated or unphosphorylated C290A C393A 122–403) was preincubated with 100 nM FAM-TACC3 522-536. Serial dilutions of competitor (CEP192) were performed in triplicate into a low volume 384-well black plate, before the premixed Aurora-A and tracer were added. A control row included no tracer. Plates were left incubating for 1 h at room temperature before the fluorescence anisotropy was measured using a HIDEX plate reader, with excitation at 485 nm and emission at 535 nm. For direct binding experiments, the assay was performed as above, but the Aurora-A (122–403 C290A C393A or point mutants) was diluted across the plate from high to low concentration, before the addition of 50 nM tracer (FAM-CEP192 501–533) to three replicate rows. Buffer only was added to the control row.\nas §5"}},
  "data": [
    {"molecule": "CC[C@@H]1C(=O)N(C)c2cnc(Nc3ccc(C(=O)NC4CCN(C)CC4)cc3OC)nc2N1C1CCCC1", "note": "[BI2536]", "values": [
      {"measurement": "phosphorylation of TCTP (pS46)", "setting": "[1]", "result": "decreased"},
      {"measurement": "T-loop phosphorylation of PLK1 (pT210)", "setting": "[2]", "result": "decreased"}
    ]},
    {"molecule": "TACC3 519-563 (from UniProt Q9Y6A5)", "values": [
      {"measurement": "Kd", "setting": "Aurora-A (Homo sapiens)", "result": 6, "unit": "µM"}
    ]},
    {"molecule": "IWSPTCERRTCECHESIEKNKDKTDLPQSVVYQNEEGRWVTDLAYYTSFNSKQNLNVSLSDEMNEDFRSGSEAFDLIAQDEEEFNKEHQFIQ [CEP192 442-533, recombinant human CEP192 aa 442–533]", "values": [
      {"measurement": "competition for binding with FAM-TACC3 522-536", "setting": "Aurora-A CAKD", "result": "competed for binding with FAM-TACC3_522-536"},
      {"measurement": "effect on Aurora-A kinase activity", "setting": "[3]", "result": "partially inhibited the activity"},
      {"measurement": "competition for binding with FAM-TPX2 7-43", "setting": "[4]", "result": "competed for binding with FAM-TPX2_7-43"}
    ]}
  ]
}
